Data published in US10138212B2, “Aminoquinazoline compounds as A2A antagonist” (Merck Sharp & Dohme Corp., priority 2015, dated 2018).

How the values were obtained:
human A2a receptor = human A2a receptor (Homo sapiens (Human), UniProt P29274); experiment: A2a competition binding assay using Scintillation Proximity technology
How it was run: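 Membranes (0.25 or 1 μg) from HEK293 expressing the receptor were pretreated with adenosine deaminase and bound to WGA-coated yttrium silicate SPA beads. They were incubated 1 h at room temperature with compound at 3000–0.15 nM and 0.5 nM tritiated pyrazolotriazolopyrimidine ligand in Ca/Mg-free DPBS with 10 mM MgCl2. Ki was derived from […] by Cheng-Prusoff.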

human A1 receptor = human A1 receptor (Homo sapiens (Human), UniProt P30542); experiment: A1 competition binding assay using Scintillation Proximity technology; selectivity = A1 binding Ki / A2a binding Ki; conditions: A1 binding Ki divided by A2a binding Ki
How it was run: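 SPA competition using 5 ug membranes from CHO-K1 cells expressing human A1, pretreated with adenosine deaminase. Radioligand was 0.7 nM [3H]DPCPX (final), with compound at 3000–0.15 nM in DPBS + 10 mM MgCl2. Incubation was 1 h at room temperature. Non-specific binding was defined with 1 uM DPCPX, and Ki was derived as for A2a.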

[1] = 0.25 μg of membranes from HEK293 cells expressing the human A2a receptor
[2] = * assay run with 1 μg of membranes versus 0.25 μg, HEK293 cells expressing the human A2a receptor

Chain of human A1 receptor (P30542 whole entry): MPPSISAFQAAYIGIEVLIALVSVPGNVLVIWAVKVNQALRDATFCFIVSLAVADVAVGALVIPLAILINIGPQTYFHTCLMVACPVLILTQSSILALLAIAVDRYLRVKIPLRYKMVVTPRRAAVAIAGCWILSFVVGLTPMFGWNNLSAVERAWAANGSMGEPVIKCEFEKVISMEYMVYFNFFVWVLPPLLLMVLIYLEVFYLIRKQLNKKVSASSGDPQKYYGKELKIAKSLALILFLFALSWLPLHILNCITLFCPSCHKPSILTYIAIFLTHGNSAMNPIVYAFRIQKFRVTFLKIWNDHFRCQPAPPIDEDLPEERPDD
Chain of human A2a receptor (P29274 whole entry): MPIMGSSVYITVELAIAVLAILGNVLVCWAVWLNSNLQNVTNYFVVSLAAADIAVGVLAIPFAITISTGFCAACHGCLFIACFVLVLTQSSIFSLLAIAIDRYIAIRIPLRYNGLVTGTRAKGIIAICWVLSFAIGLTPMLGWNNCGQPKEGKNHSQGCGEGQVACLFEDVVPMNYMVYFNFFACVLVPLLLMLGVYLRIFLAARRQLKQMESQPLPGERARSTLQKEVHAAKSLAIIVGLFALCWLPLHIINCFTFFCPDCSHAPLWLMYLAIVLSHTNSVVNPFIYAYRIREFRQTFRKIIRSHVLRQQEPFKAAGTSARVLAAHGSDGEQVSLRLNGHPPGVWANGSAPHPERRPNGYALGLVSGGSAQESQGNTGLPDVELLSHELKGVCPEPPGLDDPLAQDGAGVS

Row | SMILES | Ki (human A2a receptor; [1]) | A2a selectivity (A2a A1 binding selectivity) (human A1 receptor) | Ki (human A2a receptor; [2])
1 | COc1cccc2c(C(=O)NCc3cccc(COCC4CC4)n3)nc(N)nc12 [Example 50, 2-amino-N-[[6-(cyclopropylmethoxy-methyl)-2-pyridyl]methyl]-8-methoxy-quinazoline-4-carboxamide] | 1.3 nM | 160 | 
2 | COc1cccc2c(C(=O)N[C@@H](CO)c3ccccc3)nc(N)nc12 [Example 36, 2-amino-N-[(1R)-2-hydroxy-1-phenyl-ethyl]-8-methoxy-quinazoline-4-carboxamide] | 2.6 nM | 114 | 
3 | COc1cccc2c(C(=O)NCc3cccc(C(C)(O)C(F)(F)F)n3)nc(N)nc12 (centres unmarked) [Example 3, 2-amino-8-methoxy-N-[[6-(2,2,2-trifluoro-1-hydroxy-1-methyl-ethyl)-2-pyridyl]methyl]quinazoline-4-carboxamide] | 0.5 nM | 600 | 
4 | COc1cccc2c(C(=O)NCc3ccc(F)cn3)nc(N)nc12 [Example 26, 2-amino-N-[(5-fluoro-2-pyridyl)methyl]-8-methoxy-quinazoline-4-carboxamide] | 6.6 nM | 89 | 
5 | Nc1nc(C(=O)NCc2cc(C3CC3)on2)c2cccc(F)c2n1 [Example 83, 2-amino-N-[(5-cyclopropylisoxazol-3-yl)methyl]-8-fluoro-quinazoline-4-carboxamide] | 14 nM | 3 | 
6 | COc1cccc2c(C(=O)NCc3nc(-c4ccccc4)c(C)o3)nc(N)nc12 [Example 31, 2-amino-8-methoxy-N-[(5-methyl-4-phenyl-oxazol-2-yl)methyl]quinazoline-4-carboxamide] | 1.6 nM | 105 | 
7 | Nc1nc(C(=O)NCc2cccc3cccnc23)c2cccc(-c3cncnc3)c2n1 [Example 97, 2-amino-8-pyrimidin-5-yl-N-(8-quinolylmethyl)quinazoline-4-carboxamide] | 291 nM | 1 | 
8 | COc1cccc2c(C(=O)NCc3ncccn3)nc(N)nc12 [Example 38, 2-amino-8-methoxy-N-(pyrimidin-2-ylmethyl)quinazoline-4-carboxamide] | 43 nM | 94 | 
9 | Nc1nc(C(=O)NCc2ncccc2-c2ncccn2)c2cccc(F)c2n1 [Example 67, 2-amino-8-fluoro-N-[(3-pyrimidin-2-yl-2-pyridyl)methyl]quinazoline-4-carboxamide] | 4 nM | 297 | 
10 | COc1cccc2c(C(=O)NCc3cccc(CO)n3)nc(N)nc12 [Example 14, 2-amino-N-[[6-(hydroxymethyl)-2-pyridyl]methyl]-8-methoxy-quinazoline-4-carboxamide] | 4.6 nM | 273 | 
11 | COc1cccc2c(C(=O)NCc3cccc(COC4CCCC4)n3)nc(N)nc12 [Example 48, 2-amino-N-[[6-(cyclopentoxymethyl)-2-pyridyl]methyl]-8-methoxy-quinazoline-4-carboxamide] | 0.5 nM | 447 | 
12 | COc1cccc2c(C(=O)NC3CCc4ccccc4C3)nc(N)nc12 (centres unmarked) [Example 34, 2-amino-8-methoxy-N-[2-tetralin-2-yl]quinazoline-4-carboxamide] | 20 nM | 46 | 
13 | COc1cccc2c(C(=O)NCc3cccc(COCC4CCCC4)n3)nc(N)nc12 [Example 49, 2-amino-N-[[6-(cyclopentylmethoxy-methyl)-2-pyridyl]methyl]-8-methoxy-quinazoline-4-carboxamide] | 0.5 nM | 251 | 
14 | COc1cccc2c(C(=O)NCc3nc(C(C)(C)O)ccc3C)nc(N)nc12 [Example 2, 2-amino-N-[[6-(1-hydroxy-1-methyl-ethyl)-3-methyl-2-pyridyl]methyl]-8-methoxy-quinazoline-4-carboxamide] | 0.6 nM | 193 | 
15 | COc1cccc2c(C(=O)NCc3cccc(C4CCC4)n3)nc(N)nc12 [Example 6, 2-amino-N-[(6-cyclobutyl-2-pyridyl)methyl]-8-methoxy-quinazoline-4-carboxamide] | 0.2 nM | 102 | 
16 | COc1cccc2c(C(=O)NCc3cccc4c3OC(F)(F)O4)nc(N)nc12 [Example 42, 2-amino-N-[(2,2,-difluoro-1,3-benzodioxol-4-yl)methyl]-8-methoxy-quinazoline-4-carboxamide] |  | 39 | 5.3 nM
17 | COc1cccc2c(C(=O)NCc3ncc(C)cc3C)nc(N)nc12 [Example 28, 2-amino-N-[(3,5-dimethyl-2-pyridyl)methyl]-8-methoxy-quinazoline-4-carboxamide] | 1.5 nM | 117 | 

The remaining lines, values ahead:

Row | Ki (human A2a receptor; [1]) | A2a selectivity (A2a A1 binding selectivity) (human A1 receptor) | Ki (human A2a receptor; [2]) | SMILES
18 | 4.5 nM | 19 |  | Nc1nc(C(=O)NCc2cccc(-c3cnco3)n2)c2cccc(F)c2n1 [Example 70, 2-amino-8-fluoro-N-[(6-oxazol-5-yl-2-pyridyl)methyl]quinazoline-4-carboxamide]
19 | 1 nM | 50 |  | CC(C)c1cccc(-c2cccc(CNC(=O)c3nc(N)nc4c(F)cccc34)n2)c1 [Example 65, 2-amino-8-fluoro-N-[[6-(3-isopropylphenyl)-2-pyridyl]methyl]quinazoline-4-carboxamide]
20 |  | 4 | 3.3 nM | COc1cccc2c(C(=O)NCc3cccc(-c4cccc(O)c4)n3)nc(N)nc12 [Example 8, 2-amino-N-[[6-(3-hydroxyphenyl)-2-pyridyl]methyl]-8-methoxy-quinazoline-4-carboxamide]
21 | 0.9 nM | 235 |  | Nc1nc(C(=O)NCc2ccccc2-c2ncccn2)c2cccc(F)c2n1 [Example 64, 2-amino-8-fluoro-N-[(2-pyrimidin-2-ylphenyl)methyl]quinazoline-4-carboxamide]
22 | 1.2 nM | 33 |  | Nc1nc(C(=O)NCc2cccc(Cc3ccc(F)c(F)c3)n2)c2cccc(F)c2n1 [Example 102, 2-amino-N-[[6-[(3,4-difluorophenyl)methyl]-2-pyridyl]methyl]-8-fluoro-quinazoline-4-carboxamide]
23 |  | 44 | 9.1 nM | Cc1ccc(-c2cccnc2CNC(=O)c2nc(N)nc3c(F)cccc23)nc1 [Example 68, 2-amino-8-fluoro-N-[[3-(5-methyl-2-pyridyl)-2-pyridyl]methyl]quinazoline-4-carboxamide]
24 | 3.6 nM | 60 |  | Nc1nc(C(=O)NCc2cccc(C(F)F)n2)c2cccc(F)c2n1 [Example 71, 2-amino-N-[[6-(difluoromethyl)-2-pyridyl]methyl]-8-fluoro-quinazoline-4-carboxamide]
25 | 9.6 nM | 67 |  | Nc1nc(C(=O)NCc2cccc(CO)n2)c2cccc(F)c2n1 [Example 57, 2-amino-8-fluoro-N-[[6-(hydroxymethyl)-2-pyridyl]methyl]quinazoline-4-carboxamide]
26 | 0.8 nM | 59 |  | Nc1nc(C(=O)NCc2cccc(-c3ccccn3)n2)c2cccc(F)c2n1 [Example 63, 2-amino-8-fluoro-N-[[6-(2-pyridyl)-2-pyridyl]methyl]quinazoline-4-carboxamide]
27 | 0.8 nM | 82 |  | COc1cccc(CNC(=O)c2nc(N)nc3c(OC)cccc23)n1 [Example 21, 2-amino-8-methoxy-N-[(6-methoxy-2-pyridyl)methyl]quinazoline-4-carboxamide]
28 |  | 42 | 2.5 nM | COc1cccc2c(C(=O)NCc3cccc(Cc4ccccc4)n3)nc(N)nc12 [Example 103, 2-amino-N-((6-benzylpyridin-2-yl)methyl)-8-methoxyquinazoline-4-carboxamide]
29 | 1.6 nM | 31 |  | Nc1nc(C(=O)NCc2cccc(Cc3ccncc3)n2)c2cccc(F)c2n1 [Example 112, 2-amino-8-fluoro-N-[[6-(4-pyridylmethyl)-2-pyridyl]methyl]quinazoline-4-carboxamide]
30 |  | 13 | 6.6 nM | Nc1nc(C(=O)NCc2nccc3ccccc23)c2cccc(F)c2n1 [Example 89, 2-amino-8-fluoro-N-(isoquinolin-1-ylmethyl)quinazoline-4-carboxamide]
31 | 0.2 nM | 146 |  | COc1cccc2c(C(=O)NCc3cccc(C(C)C)n3)nc(N)nc12 [Example 5, 2-amino-N-[(6-isopropyl-2-pyridyl)methyl]-8-methoxy-quinazoline-4-carboxamide]
32 | 0.5 nM | 115 |  | Cc1ccc(F)c(CNC(=O)c2nc(N)nc3c(F)cccc23)n1 [Example 76, 2-amino-8-fluoro-N-[(3-fluoro-6-methyl-2-pyridyl)methyl]quinazoline-4-carboxamide]
33 |  | 3 | 3.8 nM | CC(C)Oc1cccc(-c2cccc(CNC(=O)c3nc(N)nc4c(F)cccc34)n2)c1 [Example 66, 2-amino-8-fluoro-N-[[6-(3-isopropoxyphenyl)-2-pyridyl]methyl]quinazoline-4-carboxamide]
34 | 1.2 nM | 113 |  | COc1cccc2c(C(=O)NCc3cccc(-c4ccccn4)n3)nc(N)nc12 [Example 10, 2-amino-8-methoxy-N-[[6-(2-pyridyl)-2-pyridyl]methyl]quinazoline-4-carboxamide]
